The test system of assay [1] is HFF-1 cells. Type of assay: cell-based, human. The settings on record: 72 h. The method, then:
Immortalized human foreskin fibroblasts (HFF-1) were grown as a monolayer from passage number 8–16. For routine maintenance, HFF-1 cells were cultured in Dulbecco’s Modified Eagle Medium (DMEM, from Cell Lines Service) supplemented with 15% fetal bovine serum (FBS, from CLS) and 1% antibiotic/antimycotic solution (100 units/mL of penicillin, 100 μg/mL of streptomycin and 0.25 μg/mL of amphotericin B, from Sigma-Aldrich, St. Louis, MO, United States) at 37°C in an humidified atmosphere with 5% CO2. Cells were harvested by trypsinization [0.25% (w/v) trypsin-EDTA4Na, Sigma-Aldrich, St. Louis, MO, United States] twice a week.
The cytotoxicity of synthetic peptides to HFF-1 cells was evaluated using the standard MTT assay. Briefly, cells were seeded at a density of 8 × 10^4 cells/well onto 96-well plate and incubated at 37°C in a 5% CO2 atmosphere. Cells were allowed to grow for 48 h, and serially diluted peptide solutions (0.78–100 μM) were added to the wells. Then, cells were incubated for 72 h at 37°C, after which wells were washed once with phosphate buffered saline (PBS, Sigma-Aldrich, St. Louis, MO, United States), followed by addition of a 0.45 mg/mL MTT solution to each well. Crystals were allowed to form for 1.5 h. Reaction was stopped by rejecting the medium and addition of dimethylsulfoxide (DMSO, Sigma-Aldrich, St. Louis, MO, United States). Absorbance was read at 570 nm (Biotek PowerWave XS).
At the end of the cytotoxicity assays, the number of viable cells was never below that of initially plated cells. As such, data are represented as peptide concentrations causing 50% growth inhibition (IC50) on HFF-1 cells, rather than as lethal dosis values. IC50 values thus obtained are also included in Table 2.

Assay [2] concerns MDR clinical isolates of P. aeruginosa (PA002, PA004, Pa3, Pa4). Type of assay: cell-based, Pseudomonas aeruginosa. On the procedure:
The minimum inhibitory concentration (MIC) of synthetic peptides was determined using the broth microdilution method in cation-adjusted Mueller-Hinton broth (MHB2 – Sigma-Aldrich, St. Louis, MO, United States), according to the recommendations of the Clinical and Laboratory Standards Institute ([CLSI, 2012]), against four reference strains, namely, P. aeruginosa ATCC 27853, E. coli ATCC 25922, S. aureus ATCC 25923 and Enterococcus faecalis ATCC 29212. MIC values of peptide 3.1-PP4 were also determined against MDR clinical isolates of P. aeruginosa (PA002, PA004, Pa3, Pa4), E. coli (Ec1, Ec2, EC001, EC002, EC003) and K. pneumoniae (KP004, KP007, KP010). The peptides were tested in the concentration range of 1–1024 μg/mL. The minimum bactericidal concentration (MBC) was determined as previously reported ([Bessa et al., 2018]).
In view of the above results, peptide conjugate 3.1-PP4 was selected for further investigation of its activity against MDR isolates of three Gram-negative bacterial species, namely, P. aeruginosa (four isolates), E. coli (five isolates), and K. pneumoniae (four isolates), whose antimicrobial resistance patterns are provided in the Supplementary Table S1. MDR isolates of K. pneumoniae were included in this analysis given (i) the high prevalence of K. pneumoniae in HAI ([Zheng et al., 2017]), (ii) that K. pneumoniae isolates used are carbanepem-resistant strains of an Enterobacteriaceae species, meaning that they are class 1 priority pathogens for the research and development of new antibiotics according to the WHO ([WHO, 2017]), and (iii) K. pneumoniae bacteria are usually better biofilm producers than the other Enterobacteriaceae species used, E. coli ([Reisner et al., 2006]). MIC values obtained are shown in Table 3, and confirm peptide’s 3.1-PP4 potent action against Gram-negative bacteria, including MDR isolates, with a selectivity index (SI), i.e., ratio of IC50 values for mammalian vs. bacterial cells, ranging from ca. 9–69. In fact, for P. aeruginosa and E. coli, MIC against MDR isolates were in the same range, or below, of those previously found for ATCC reference strains (Table 2). For K. pneumoniae, MIC values ranged between 1 and 4 μM, which is remarkable.

The subject of assay [3] is HFF-1 cells. Put plainly: Collagen production, Picrosirius Red staining. Type of assay: cell-based, human. The settings on record: HFF-1, 72 h incubation, Sirius Red, absorbance 540 nm; concentrations representative of the MIC values; compared with C16-PP4. The method, then: Collagen production was assessed as described by [Remoué et al. (2013)]. Briefly, HFF-1 cells were seeded and incubated as described previously for the cytotoxicity assay. After the 72 h incubation with peptides, cells were washed with PBS and the Sirius Red dye in picric acid solution (Sigma-Aldrich, St. Louis, MO, United States) was applied to each well. Cells were incubated at 25°C for 1 h under orbital shaking. Dye was then rejected, and cells were washed twice with absolute ethanol (AGA). Once the wells were dry, 1 M aqueous NaOH (Sigma-Aldrich, St. Louis, MO, United States) was added, and absorbance read at 540 nm (Biotek PowerWave XS).
The CBP-AMP conjugates herein addressed include a collagenesis-inducing motif, the amino acid sequence KTTKS whose N-palmitoylated derivative is the well-known “Palmitoyl pentapeptide-4” (C16-PP4) that emerged in 2000 under the commercial name Matrixyl as an active ingredient in skin rejuvenating cosmetics. […] To this end, collagen produced by HFF-1 human fibroblasts was determined by the previously validated Picrosirius Red Staining Protocol ([Remoué et al., 2013]), taking C16-PP4 as reference CBP. […] Results are presented in Figure 3, and expressed as the ratio between collagen produced and the number of viable cells, as the test peptides had different cytotoxicity against the HFF-1 cell line. […]

SMILES strings stand for the structures. Several values for one entry are separate records, joined by “and”; a condition that tells them apart may be missing. Equal entries are not always repeated. Where two headings read alike, the source gives them in different places. Peptide text beside a SMILES is read from it.

As for `CC(C)C[C@H](NC(=O)[C@H](Cc1c[nH]c2ccccc12)NC(=O)[C@H](CCCCN)NC(=O)[C@H](CC(C)C)NC(=O)[C@H](CC(C)C)NC(=O)[C@H](CCCCN)NC(=O)[C@@H](N)CCCCN)C(=O)N[C@@H](CC(C)C)C(=O)N[C@@H](CCCCN)C(=O)N[C@@H](CC(C)C)C(=O)N[C@@H](CC(C)C)C(=O)N[C@@H](CCCCN)C(=O)N[C@H](C(=O)N[C@H](C(=O)N[C@@H](CCCCN)C(=O)N[C@@H](CO)C(N)=O)[C@@H](C)O)[C@@H](C)O` [Peptide 3.1-PP4] (H-KKLLKWLLKLLKTTKS-NH2; N-terminus assumed), in the assay with HFF-1 cells [1], the IC50 (as a rule, the concentration that inhibits the measured activity by half) came to 69 ± 5 µM. Moreover, the minimum inhibitory concentration (MIC) – broadly, the smallest concentration in the dilution series that meets the test's criterion for growth inhibition – in assay [2] (MDR P. aeruginosa isolate PA002, MHB2) was 4 µg/mL; in assay [2] (MDR P. aeruginosa isolate PA004, MHB2), 2 μg/mL and 1 μM; in assay [2] (MDR P. aeruginosa isolate Pa3, MHB2), 2 μg/mL and 1 μM; in assay [2] (MDR P. aeruginosa isolate Pa4, MHB2), 2 μg/mL and 1 μM; in assay [2] (MDR clinical isolates of (PA002, PA004, Pa3, Pa4)), 2 µM. Also, the “collagenesis-inducing behavior (collagen produced / number of viable cells)” value in the assay on HFF-1 cells [3] is listed as “not statistically different from that of Matrixyl (C16-PP4)”.

The record behind these values is publication PMC6710338, “Turning a Collagenesis-Inducing Peptide Into a Potent Antibacterial and Antibiofilm Agent Against Multidrug-Resistant Gram-Negative Bacteria” (Frontiers in Microbiology, 2019).
